One test relates to ZR-75-1 cells. In words: Caspase cascade activation (N-(Ac-DEVD)-N'-ethoxycarbonyl-R110 fluorogenic substrate) in ZR-75-1 cells. Format: cell-based, Human. As to conditions: ZR-75-1, 48 h incubation. Summed up:
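EC50 comes from sigmoidal fitting of the net RFU ratio over DMSO control, read at ex 485/em 530 nm 3 h after adding 14 μM Ac-DEVD-R110 in lysolecithin/DTT/PIPES pH 7.2 buffer. Compound (0.016-10 μM final) was applied to cells for 48 h at 37 °C beforehand.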

Another test relates to MDA-MB-435 cells. The test can be described thus: Cell proliferation assay (GI50) in MDA-MB-435 cells. The format is cell-based. As to conditions: Homo sapiens, MDA-MB-435, 48 h. On the procedure: [Worded in the source for another cell line; this cell line is reported under the same test.] T-47D cells were grown and harvested as in Example 221. An aliquot of 90 μl of cells (2.2×10^4 cells/ml) was added to a well of a 96-well microtiter plate containing 10 μl of a 10% DMSO in RPMI-1640 media solution containing 1 nM to 100 μM of 4-(3-methoxyanilino)-2-(2-pyridinyl)-6-(trifluoromethyl)pyrimidine (0.1 nM to 10 μM final). An aliquot of 90 μl of cells was added to a well of a 96-well microtiter plate containing 10 μl of a 10% DMSO in RPMI-1640 media solution without compound as the control sample for maximal cell proliferation (AMax). The samples were mixed by agitation and then incubated at 37° C. for 48 h in a 5% CO2-95% humidity incubator. After incubation, the samples were removed from the incubator and 20 μl of CellTiter 96 AQueous One Solution Cell Proliferation^TM reagent (Promega) was added. The samples were mixed by agitation and incubated at 37° C. for 2-4 h in a 5% CO2-95% humidity incubator. Using an absorbance plate reader (Model 1420 Wallac Instruments), an initial reading (T=0) was made approximately 1-2 min after addition of the solution, employing absorbance at 490 nm. This determines the possible background absorbance of the test compounds. No absorbance for 4-(3-methoxyanilino)-2-(2-pyridinyl)-6-(trifluoromethyl)pyrimidine was found at 490 nm. After the 2-4 h incubation, the samples were read for absorbance as above (ATest). […]

In a further test the test system is T47D cells. The test can be described thus: Clonogenic survival of T47D cells. Format: cell-based. Particulars: Homo sapiens, 48 h treatment, colonies after 7-10 days, read-out: IC50 inhibition of clonogenic survival (colony forming ability), T47D. The procedure:
T47D and MX-1 cells were grown according to the conditions according conditions recommended by American Type Culture Collection. In a well of a 96 well plate, 30,000 cells were seeded and treated with tested compound at the indicated concentrations for 48 hr in a 5% CO2-95% humidity incubator at 37° C. Control wells were treated with the same amount of solvent (DMSO) as the compound samples. After the 48 h treatment, the supernatant was removed to a sterile culture tube and the wells washed with phosphate buffered saline, and the adherent cells trypsinized for 5 min. The trypsinzed cells were added to the culture supernatant, cells were collected (1,200 rpm, 10 min), washed with phosphate buffered saline, and resuspended in fresh media. The cells were counted for trypan blue negative cells, and the cells diluted with fresh media to 1,000 cells/ml. To a well of a 24-well plate, 0.1 ml of the cell suspension was added along with 1 ml of fresh media (cell suspensions were passed through a 22G needle several times just before plating to form single cell suspensions). Plates are incubated in a 5% CO2-95% humidity incubator at 37° C. for 7-10 days. Colonies are counted when the sizes reached greater than 50 cells per colony. […] Colonies are rinsed with water and the colonies counted and the fraction surviving expressed as the percentage of the number of control colonies.

Usually EC50 stands for the concentration needed to bring the measured effect to its halfway point. Lower therefore signals higher potency in that assay. As usually defined, the GI50 is the concentration that inhibits growth by half. Read a high GI50 as less potent growth inhibition. One may read the IC50 as the concentration that gives 50% inhibition.

With `COc1cccc(Nc2cc(C(F)(F)F)nc(-c3ccccn3)n2)c1` [Compound A, 4-(3-methoxyanilino)-2-(2-pyridinyl)-6-(trifluoromethyl)pyrimidine], the EC50 with ZR-75-1 cells (Homo sapiens, caspase activation potency) came to 0.14 µM. Besides, the “ZR Ratio 48 hr” value in the test on ZR-75-1 cells (caspase activity: ratio of net RFU of test compound to control) is reported as 3.6. In the test with MDA-MB-435 cells, this molecule came in with a GI50 of 4500 nM. In the test on T47D cells, the IC50 is approximately 0.1 µM.

For the origin of these results see patent publication US6716851B2, “Substituted 2-aryl-4-arylaminopyrimidines and analogs as activators or caspases and inducers of apoptosis and the use thereof” (Cytovia, Inc., priority 2000, dated 2004).
